Experiment: Plasma concentration of intact GIP after subcutaneous GIP injection
Type: in vivo, human

Time until plasma intact GIP returned to basal level (fasting men with T2D, n = 10, 200 µg GIP subcutaneous bolus): about 150 minutes
Tmax (male, human, plasma, sc, 200 ug): 30 min
Cmax (male, human, plasma, sc, 200 ug, SEM): 0.055 ± 0.0058 nM
Compound: CC[C@H](C)[C@H](NC(=O)[C@H](CO)NC(=O)[C@H](Cc1ccc(O)cc1)NC(=O)[C@H](CC(=O)O)NC(=O)[C@H](CO)NC(=O)[C@@H](NC(=O)[C@H](Cc1ccccc1)NC(=O)[C@@H](NC(=O)CNC(=O)[C@H](CCC(=O)O)NC(=O)[C@H](C)NC(=O)[C@@H](N)Cc1ccc(O)cc1)[C@@H](C)O)[C@@H](C)CC)C(=O)N[C@@H](C)C(=O)N[C@@H](CCSC)C(=O)N[C@@H](CC(=O)O)C(=O)N[C@@H](CCCCN)C(=O)N[C@H](C(=O)N[C@@H](Cc1c[nH]cn1)C(=O)N[C@@H](CCC(N)=O)C(=O)N[C@@H](CCC(N)=O)C(=O)N[C@@H](CC(=O)O)C(=O)N[C@@H](Cc1ccccc1)C(=O)N[C@H](C(=O)N[C@@H](CC(N)=O)C(=O)N[C@@H](Cc1c[nH]c2ccccc12)C(=O)N[C@@H](CC(C)C)C(=O)N[C@@H](CC(C)C)C(=O)N[C@@H](C)C(=O)N[C@@H](CCC(N)=O)C(=O)N[C@@H](CCCCN)C(=O)NCC(=O)N[C@@H](CCCCN)C(=O)N[C@@H](CCCCN)C(=O)N[C@@H](CC(N)=O)C(=O)N[C@@H](CC(=O)O)C(=O)N[C@@H](Cc1c[nH]c2ccccc12)C(=O)N[C@@H](CCCCN)C(=O)N[C@@H](Cc1c[nH]cn1)C(=O)N[C@@H](CC(N)=O)C(=O)N[C@H](C(=O)N[C@H](C(=O)N[C@@H](CCC(N)=O)C(=O)O)[C@@H](C)O)[C@@H](C)CC)C(C)C)[C@@H](C)CC [GIP, Human GIP(1-42)]

Reference: article PMC11180509 (The Journal of Clinical Endocrinology and Metabolism, 2024)
